Test results: patent US20260258032A1, “TYROSINE KINASE 2 INHIBITORS AND USES THEREOF” (BIOGEN MA INC., priority 2022, published 2026)
Structures can show the parent of a compound that is named as a salt.

What was measured:
[1] = molecular target: T1, JH2 domain of human Tyk2 (Homo sapiens, UniProt P29597); experiment: JH2 biochemical assay (TR-FRET probe displacement); assay type: binding; conditions: JH2 biochemical assay
T1 construct: 10×His-tagged TYK2 JH2 domain (amino acid 575-876)
Outline: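 10×His-tagged human TYK2 JH2 (aa 575-876, 2 nM) incubated 60 min with 2 nM fluorescent probe, 0.1 nM Tb anti-His antibody and compound (10-point 3-fold series from […] top). TR-FRET 520/495 nm ratio, falling with probe displacement, normalized and fitted to a 4-parameter logistic for IC50.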

[2] = test system: Tyk2 kinase activity on STAT4; experiment: pSTAT4 cell assay (MSD, NK92 cells); assay type: cell-based; conditions: compounds 1 hr, stimulated 15 minutes
Outline: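 Serum-starved NK92 cells, which natively express Tyk2 and STAT4, were pretreated for 1 h with a 10-point 4-fold dilution series from 10 μM. They were then stimulated with 30 ng/mL IL2 for 15 min. Phospho-STAT in lysates was quantified by MSD with anti-STAT4 antibodies, and IC50 was obtained from 4-parameter logistic fits.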

T1 sequence (P29597 575-876): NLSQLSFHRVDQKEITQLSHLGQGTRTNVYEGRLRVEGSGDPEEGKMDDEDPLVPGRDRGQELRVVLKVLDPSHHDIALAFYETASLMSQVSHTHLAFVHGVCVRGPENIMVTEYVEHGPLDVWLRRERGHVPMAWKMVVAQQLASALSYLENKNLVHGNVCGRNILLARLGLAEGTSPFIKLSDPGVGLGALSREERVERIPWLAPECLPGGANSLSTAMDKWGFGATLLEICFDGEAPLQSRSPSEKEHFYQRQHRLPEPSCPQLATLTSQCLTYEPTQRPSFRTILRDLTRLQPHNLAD

Row | SMILES | IC50 [1] [nM] | IC50 [2] [nM]
1 | CC(=O)Nc1cc2c(cn1)C1(CC1)CN2c1cc(C)cc(N2CCN(C)CC2)n1 [Example 207, N-(1′-(4-methyl-6-(4-methylpiperazin-1-yl)pyridin-2-yl)-1′,2′-dihydrospiro[cyclopropane-1,3′-pyrrolo[3,2-c]pyridin]-6′-yl)acetamide] | 100 to 1000 | ≥ 1000
2 | CC(=O)Nc1cc2c(cn1)C1(CC1)CN2c1cc(C)cc(N2CCC3(CC2)COC3)n1 [Example 208, N-(1′-(4-methyl-6-(2-oxa-7-azaspiro[3.5]nonan-7-yl)pyridin-2-yl)-1′,2′-dihydrospiro[cyclopropane-1,3′-pyrrolo[3,2-c]pyridin]-6′-yl)acetamide] | 100 to 1000 | ≥ 1000
3 | CC(=O)Nc1cc2c(cn1)C1(CC1)CN2c1cc(C)cc(N2C[C@H]3CNC[C@H]3C2)n1 [Example 209, N-(1′-(6-((3aR,6aS)-hexahydropyrrolo[3,4-c]pyrrol-2(1H)-yl)-4-methylpyridin-2-yl)-1′,2′-dihydrospiro[cyclopropane-1,3′-pyrrolo[3,2-c]pyridin]-6′-yl)acetamide trifluoroacetate] | 100 to 1000 | ≥ 1000
4 | CC(=O)Nc1cc2c(cn1)C1(CC1)CN2c1cc(C)cc(N2CC3CCNC3C2)n1 (centres unmarked) [Example 210, N-(1′-(6-(hexahydropyrrolo[3,4-b]pyrrol-5(1H)-yl)-4-methylpyridin-2-yl)-1′,2′-dihydrospiro[cyclopropane-1,3′-pyrrolo[3,2-c]pyridin]-6′-yl)acetamide trifluoroacetate] | 100 to 1000 | ≥ 1000
5 | CC(=O)Nc1cc2c(cn1)C1(CC1)CN2c1cc(C)cc(N2CCNCC2)n1 [Example 211, N-(1′-(4-methyl-6-(piperazin-1-yl)pyridin-2-yl)-1′,2′-dihydrospiro[cyclopropane-1,3′-pyrrolo[3,2-c]pyridin]-6′-yl)acetamide trifluoroacetate] | ≤ 10 | ≥ 1000
6 | CC(=O)Nc1cc2c(cn1)C1(CC1)CN2c1cc(C)cc(N2CCNC(CCO)C2)n1 (centres unmarked) [Example 212, N-(1′-(6-(3-(2-hydroxyethyl)piperazin-1-yl)-4-methylpyridin-2-yl)-1′,2′-dihydrospiro[cyclopropane-1,3′-pyrrolo[3,2-c]pyridin]-6′-yl)acetamide trifluoroacetate] | 100 to 1000 | ≥ 1000
7 | CC(=O)Nc1cc2c(cn1)C1(CC1)CN2c1cc(C)nc(N2CCOCC2)n1 [Example 213, N-(1′-(6-methyl-2-morpholinopyrimidin-4-yl)-1′,2′-dihydrospiro[cyclopropane-1,3′-pyrrolo[3,2-c]pyridin]-6′-yl)acetamide] | 10 to 100 | ≥ 1000
8 | CC(=O)Nc1cc2c(cn1)C1(CC1)CN2c1cc(C)nc(N2CCC(O)C2)n1 (centres unmarked) [Example 214, N-(1′-(2-(3-hydroxypyrrolidin-1-yl)-6-methylpyrimidin-4-yl)-1′,2′-dihydrospiro[cyclopropane-1,3′-pyrrolo[3,2-c]pyridin]-6′-yl)acetamide] | 100 to 1000 | ≥ 1000
9 | CC(=O)Nc1cc2c(cn1)C1(CC1)CN2c1cc(C)nc(N2CC(C#N)C2)n1 [Example 216, N-(1′-(2-(3-cyanoazetidin-1-yl)-6-methylpyrimidin-4-yl)-1′,2′-dihydrospiro[cyclopropane-1,3′-pyrrolo[3,2-c]pyridin]-6′-yl)acetamide] | 10 to 100 | 100 to 1000
10 | CC(=O)Nc1cc2c(cn1)C1(CC1)CN2c1cc(C)nc(N2CC(F)C2)n1 [Example 217, N-(1′-(2-(3-fluoroazetidin-1-yl)-6-methylpyrimidin-4-yl)-1′,2′-dihydrospiro[cyclopropane-1,3′-pyrrolo[3,2-c]pyridin]-6′-yl)acetamide] | ≤ 10 | 100 to 1000
11 | CCC1(C#N)CN(c2nc(C)cc(N3CC4(CC4)c4cnc(NC(C)=O)cc43)n2)C1 [Example 219, N-(1′-(2-(3-cyano-3-ethylazetidin-1-yl)-6-methylpyrimidin-4-yl)-1′,2′-dihydrospiro[cyclopropane-1,3′-pyrrolo[3,2-c]pyridin]-6′-yl)acetamide] | 10 to 100 | 100 to 1000
12 | COCCC1(C#N)CN(c2nc(C)cc(N3CC4(CC4)c4cnc(NC(C)=O)cc43)n2)C1 [Example 220, N-(1′-(2-(3-cyano-3-(2-methoxyethyl)azetidin-1-yl)-6-methylpyrimidin-4-yl)-1′,2′-dihydrospiro[cyclopropane-1,3′-pyrrolo[3,2-c]pyridin]-6′-yl)acetamide] | 10 to 100 | ≥ 1000
13 | CC(=O)Nc1cc2c(cn1)C1(CC1)CN2c1cc(C)nc(N2CC(C)(C#N)C2)n1 [Example 221, N-(1′-(2-(3-cyano-3-methylazetidin-1-yl)-6-methylpyrimidin-4-yl)-1′,2′-dihydrospiro[cyclopropane-1,3′-pyrrolo[3,2-c]pyridin]-6′-yl)acetamide] | ≤ 10 | 100 to 1000
14 | CC(=O)Nc1cc2c(cn1)C1(CC1)CN2c1cc(C)nc(N2CC(C(F)F)C2)n1 [Example 222, N-(1′-(2-(3-(difluoromethyl)azetidin-1-yl)-6-methylpyrimidin-4-yl)-1′,2′-dihydrospiro[cyclopropane-1,3′-pyrrolo[3,2-c]pyridin]-6′-yl)acetamide] | 10 to 100 | ≥ 1000
15 | CC(=O)Nc1cc2c(cn1)C1(CC1)CN2c1cc(C)nc(N2CC(C#N)(C(F)F)C2)n1 [Example 223, N-(1′-(2-(3-cyano-3-(difluoromethyl)azetidin-1-yl)-6-methylpyrimidin-4-yl)-1′,2′-dihydrospiro[cyclopropane-1,3′-pyrrolo[3,2-c]pyridin]-6′-yl)acetamide trifluoroacetate] | 10 to 100 | ≥ 1000
16 | CC(=O)Nc1cc2c(cn1)C1(CC1)CN2c1cc(C)nc(N2CC(S(C)(=O)=O)C2)n1 [Example 224, N-(1′-(6-methyl-2-(3-(methylsulfonyl)azetidin-1-yl)pyrimidin-4-yl)-1′,2′-dihydrospiro[cyclopropane-1,3′-pyrrolo[3,2-c]pyridin]-6′-yl)acetamide] | 100 to 1000 | ≥ 1000
17 | CCS(=O)(=O)C1CN(c2nc(C)cc(N3CC4(CC4)c4cnc(NC(C)=O)cc43)n2)C1 [Example 225, N-(1′-(2-(3-(ethylsulfonyl)azetidin-1-yl)-6-methylpyrimidin-4-yl)-1′,2′-dihydrospiro[cyclopropane-1,3′-pyrrolo[3,2-c]pyridin]-6′-yl)acetamide] | 100 to 1000 | ≥ 1000
18 | CC(=O)Nc1cc2c(cn1)C1(CC1)CN2c1cc(C)nc(N2CC(C)(O)C2)n1 [Example 226, N-(1′-(2-(3-hydroxy-3-methylazetidin-1-yl)-6-methylpyrimidin-4-yl)-1′,2′-dihydrospiro[cyclopropane-1,3′-pyrrolo[3,2-c]pyridin]-6′-yl)acetamide] | 10 to 100 | ≥ 1000
19 | CC(=O)Nc1cc2c(cn1)C1(CC1)CN2c1cc(C)nc(N2CCN(C)CC2)n1 [Example 227, N-(1′-(6-methyl-2-(4-methylpiperazin-1-yl)pyrimidin-4-yl)-1′,2′-dihydrospiro[cyclopropane-1,3′-pyrrolo[3,2-c]pyridin]-6′-yl)acetamide] | 100 to 1000 | ≥ 1000
20 | CC(=O)Nc1cc2c(cn1)C1(CC1)CN2c1cc(C)nc(N2CCC3(CC2)COC3)n1 [Example 228, N-(1′-(6-methyl-2-(2-oxa-7-azaspiro[3.5]nonan-7-yl)pyrimidin-4-yl)-1′,2′-dihydrospiro[cyclopropane-1,3′-pyrrolo[3,2-c]pyridin]-6′-yl)acetamide trifluoroacetate] | 100 to 1000 | ≥ 1000
21 | CC(=O)Nc1cc2c(cn1)C1(CC1)CN2c1cc(C)nc(N2CCC(F)(F)C2)n1 [Example 229, N-(1′-(2-(3,3-difluoropyrrolidin-1-yl)-6-methylpyrimidin-4-yl)-1′,2′-dihydrospiro[cyclopropane-1,3′-pyrrolo[3,2-c]pyridin]-6′-yl)acetamide] | ≤ 10 | 100 to 1000
22 | COC1(C(=O)C2CC2)CCN(c2nc(C)cc(N3CC4(CC4)c4cnc(NC(C)=O)cc43)n2)CC1 [Example 231, N-(1′-(2-(4-(cyclopropanecarbonyl)-4-methoxypiperidin-1-yl)-6-methylpyrimidin-4-yl)-1′,2′-dihydrospiro[cyclopropane-1,3′-pyrrolo[3,2-c]pyridin]-6′-yl)acetamide trifluoroacetate] | 100 to 1000 | ≥ 1000
23 | CC(=O)Nc1cc2c(cn1)C1(CC1)CN2c1cc(C)nc(N2CCC(O)CC2)n1 [Example 232, N-(1′-(2-(4-hydroxypiperidin-1-yl)-6-methylpyrimidin-4-yl)-1′,2′-dihydrospiro[cyclopropane-1,3′-pyrrolo[3,2-c]pyridin]-6′-yl)acetamide] | 100 to 1000 | ≥ 1000
24 | COCCN1CCN(c2nc(C)cc(N3CC4(CC4)c4cnc(NC(C)=O)cc43)n2)CC1 [Example 233, N-(1′-(2-(4-(2-methoxyethyl)piperazin-1-yl)-6-methylpyrimidin-4-yl)-1′,2′-dihydrospiro[cyclopropane-1,3′-pyrrolo[3,2-c]pyridin]-6′-yl)acetamide trifluoroacetate] | ≥ 1000 | ≥ 1000
25 | COC1(C)CN(c2nc(C)cc(N3CC4(CC4)c4cnc(NC(C)=O)cc43)n2)C1 [Example 234, N-(1′-(2-(3-methoxy-3-methylazetidin-1-yl)-6-methylpyrimidin-4-yl)-1′,2′-dihydrospiro[cyclopropane-1,3′-pyrrolo[3,2-c]pyridin]-6′-yl)acetamide] | 10 to 100 | 100 to 1000
